Results as given in US20090082399A1, “Carbamate derivatives as positive allosteric modulators of metabotropic glutamate receptors” (Addex Pharma SA, priority 2005, published 2009).

Tests used:
rat mGluR5 = biological target: T1, rat mGluR5 (Rattus norvegicus, UniProt P31424); assay: mGluR5 assay on HEK-expressing rat mGluR5 (fluorescent cell based Ca2+ mobilization assay); details: for activation of rat mGluR5 receptors without co-addition of glutamate: HEK-rat mGluR5 cell line, no added glutamate or mGluR5 agonist; for EC50: HEK-293 cells stably expressing rat mGluR5, no co-addition of glutamate, mean of at least three independent experiments in duplicate, read-out: Ca2+ Flux (mean EC50)
T1 construct: expressed in transfected cells
T1 sequence (P31424 21-1171 isoform P31424-2 limits assumed): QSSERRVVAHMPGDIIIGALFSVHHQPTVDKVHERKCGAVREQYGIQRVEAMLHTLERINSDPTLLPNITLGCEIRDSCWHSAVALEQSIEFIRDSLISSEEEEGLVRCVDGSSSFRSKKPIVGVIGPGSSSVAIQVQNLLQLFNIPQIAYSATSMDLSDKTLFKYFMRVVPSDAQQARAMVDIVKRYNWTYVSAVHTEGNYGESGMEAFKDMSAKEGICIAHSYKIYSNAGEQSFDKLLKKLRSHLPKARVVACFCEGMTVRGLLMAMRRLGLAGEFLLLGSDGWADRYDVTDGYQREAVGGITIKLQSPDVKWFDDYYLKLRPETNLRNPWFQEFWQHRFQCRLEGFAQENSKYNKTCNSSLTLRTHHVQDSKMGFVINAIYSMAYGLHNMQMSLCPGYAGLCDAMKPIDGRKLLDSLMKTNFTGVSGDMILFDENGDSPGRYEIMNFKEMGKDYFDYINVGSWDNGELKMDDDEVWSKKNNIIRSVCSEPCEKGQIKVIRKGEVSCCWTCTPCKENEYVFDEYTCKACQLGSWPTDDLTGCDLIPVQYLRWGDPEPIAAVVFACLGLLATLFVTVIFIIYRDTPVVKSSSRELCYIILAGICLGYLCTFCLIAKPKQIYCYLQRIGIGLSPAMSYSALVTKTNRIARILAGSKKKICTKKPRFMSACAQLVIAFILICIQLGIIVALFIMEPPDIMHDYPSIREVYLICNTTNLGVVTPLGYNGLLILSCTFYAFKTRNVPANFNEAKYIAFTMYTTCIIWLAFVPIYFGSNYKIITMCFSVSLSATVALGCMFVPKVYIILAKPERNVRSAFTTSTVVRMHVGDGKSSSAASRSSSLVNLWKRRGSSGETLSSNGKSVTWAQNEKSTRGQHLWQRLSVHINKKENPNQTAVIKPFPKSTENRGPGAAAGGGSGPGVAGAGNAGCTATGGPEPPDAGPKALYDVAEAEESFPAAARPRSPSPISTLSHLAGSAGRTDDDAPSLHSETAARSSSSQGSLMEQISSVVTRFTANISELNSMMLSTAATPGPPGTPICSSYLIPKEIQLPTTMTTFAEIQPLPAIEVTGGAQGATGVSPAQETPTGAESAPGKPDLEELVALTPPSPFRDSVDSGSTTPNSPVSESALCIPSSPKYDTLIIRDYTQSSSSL
Method: Positive functional expression of HEK-293 cells stably expressing rat mGluR5 receptor was determined by measuring intracellular Ca^2+ changes using a Fluorometric Imaging Plate Reader (FLIPR, Molecular Devices, Sunnyvale, Calif.) in response to glutamate or selective known mGluR5 agonists and antagonists. Rat mGluR5 RT-PCR products in HEK-293 cells were sequenced and found 100% identical to rat mGluR5 Genbank reference sequence (NM_017012). HEK-293 cells expressing mGluR5 were maintained in media containing DMEM, dialyzed Fetal Bovine Serum (10%), Glutamax™ (2 mM), Penicillin (100 units/ml), Streptomycin (100 μg/ml), Geneticin (100 μg/ml) and Hygromycin-B (40 μg/ml) at 37° C./5% CO2.
After one day of incubation, cells were washed with assay buffer containing: 142 mM NaCl, 6 mM KCl, 1 mM […], 1 mM CaCl2, 20 mM HEPES, 1 g/L glucose, 0.125 mM sulfinpyrazone, pH 7.4. After 60 min of loading with 4 uM Fluo-4 (TefLabs, Austin, Tex.), the cells were washed three times with 50 μl of PBS Buffer and resuspended in 45 μl of assay Buffer. The plates were then transferred to a Fluorometric Imaging Plate Reader (FLIPR, Molecular Devices, Sunnyvale, Calif.) for the assessment of intracellular calcium flux. After monitoring the baseline fluorescence for 10 seconds, increasing concentrations of representative compound (from 0.01 to 60 μM) of the present invention diluted in Assay Buffer (15 μl of 4× dilutions) was added to the cell. The final DMSO concentration in the assay was 0.3%. In each experiment, fluorescence was then monitored as a function of time for 3 minutes and the data analyzed using Microsoft Excel and GraphPad Prism. Each data point was also measured two times.
Under these experimental conditions, this HEK-rat mGluR5 cell line is able to directly detect positive allosteric modulators without the need of co-addition of glutamate or mGluR5 agonist.
The concentration-response curves of representative compounds of the present invention were generated using the Prism GraphPad software (Graph Pad Inc, San Diego, USA). The curves were fitted to a four-parameter logistic equation:
(Y=Bottom+(Top−Bottom)/(1+10̂((Log EC50−X)*Hill Slope)
allowing determination of EC50 values.
The Table 1 below represents the mean EC50 obtained from at least three independent experiments of selected molecules performed in duplicate.

mGluR5 [1] = biological target: T2, mGluR5 (Rattus norvegicus, UniProt P31424); details: cited from earlier work
T2 construct: positive allosteric modulators of mGluR5 receptors in native preparations; endogenous in cells; host or cells: primary cortical astrocytes from Sprague-Dawley rat embryos (E16-19)
T2 sequence (P31424 21-1203): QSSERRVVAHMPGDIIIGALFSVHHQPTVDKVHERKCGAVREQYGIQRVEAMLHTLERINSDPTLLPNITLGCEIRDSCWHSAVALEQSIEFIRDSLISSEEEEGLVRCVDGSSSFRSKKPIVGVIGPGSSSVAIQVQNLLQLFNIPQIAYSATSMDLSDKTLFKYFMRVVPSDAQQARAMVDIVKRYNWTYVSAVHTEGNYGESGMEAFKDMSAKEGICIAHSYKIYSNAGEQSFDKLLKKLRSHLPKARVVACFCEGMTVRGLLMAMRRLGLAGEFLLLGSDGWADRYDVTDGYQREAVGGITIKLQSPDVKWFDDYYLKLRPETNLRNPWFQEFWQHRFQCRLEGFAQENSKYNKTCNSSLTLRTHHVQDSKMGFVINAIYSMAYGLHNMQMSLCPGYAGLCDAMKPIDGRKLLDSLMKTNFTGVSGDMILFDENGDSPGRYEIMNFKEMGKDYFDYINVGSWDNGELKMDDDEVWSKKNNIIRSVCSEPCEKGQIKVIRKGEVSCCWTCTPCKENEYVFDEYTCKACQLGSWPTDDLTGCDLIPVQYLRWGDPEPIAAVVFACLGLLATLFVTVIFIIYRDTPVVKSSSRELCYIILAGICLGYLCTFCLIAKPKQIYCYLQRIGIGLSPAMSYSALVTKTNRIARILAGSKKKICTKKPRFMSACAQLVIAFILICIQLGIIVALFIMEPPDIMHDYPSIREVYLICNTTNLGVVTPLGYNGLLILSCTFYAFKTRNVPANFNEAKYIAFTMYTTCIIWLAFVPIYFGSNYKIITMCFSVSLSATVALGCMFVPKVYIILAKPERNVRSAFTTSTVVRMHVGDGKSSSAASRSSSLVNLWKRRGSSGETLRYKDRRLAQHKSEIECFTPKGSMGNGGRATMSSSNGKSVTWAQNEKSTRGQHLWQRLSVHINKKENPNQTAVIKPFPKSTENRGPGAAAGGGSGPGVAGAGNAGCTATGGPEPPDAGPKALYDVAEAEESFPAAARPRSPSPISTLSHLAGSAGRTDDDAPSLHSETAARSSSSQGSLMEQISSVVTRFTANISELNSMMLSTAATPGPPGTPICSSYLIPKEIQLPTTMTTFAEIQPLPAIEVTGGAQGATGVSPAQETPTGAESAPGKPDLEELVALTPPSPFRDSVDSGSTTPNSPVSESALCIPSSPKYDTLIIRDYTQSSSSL

mGluR5 [2] = biological target: T2, mGluR5; assay: mGluR5 binding assay ([3H]-MPEP, rat brain membranes); details: 3 nM [3H]-MPEP, rat cortex membranes, 1 h at 4° C.; read-out: IC50, inhibition of [3H]-MPEP binding
Source text: Activity of compounds of the invention was examined following a radioligand binding technique using whole rat brain and tritiated 2-methyl-6-(phenylethynyl)-pyridine ([^3H]-MPEP) as a ligand following similar methods than those described in Gasparini F. et al. (2002) Bioorg. Med. Chem. Lett., 12, 407-409 and in Anderson J. F. et al. J. Pharmacol. Exp. Ther. 2002, 303, 3, 1044-1051.
Cortices were dissected out from brains of 200-300 g Sprague-Dawley rats (Charles River Laboratories, L'Arbresle, France). Tissues were homogenized in 10 volumes (vol/wt) of ice-cold 50 mM Hepes-NaOH (pH 7.4) using a Polytron disrupter (Kinematica AG, Luzern, Switzerland) and centrifuged for 30 min at 40,000 g. (4° C.). […] Protein concentration was determined by the Bradford method (Bio-Rad protein assay, Reinach, Switzerland) with bovine serum albumin as standard.
Membranes were thawed and resuspended in binding buffer containing 20 mM HEPES-NaOH, 3 mM MgCl2, 3 mM CaCl2, 100 mM NaCl, pH 7.4. […] Radioactivity was determined by liquid scintillation spectrometry using a 96-well plate reader (TopCount, Perkin-Elmer, Downers Grove, USA).
The inhibition curves were generated using the Prism GraphPad program (Graph Pad Software Inc, San Diego, USA). […] The mean of IC50 obtained from at least three independent experiments of selected molecules performed in duplicate were calculated.

Row | SMILES | EC50 (rat mGluR5) [nM] | further results
1 | N#Cc1cccc(C(=O)Nc2cc(-c3ccccc3)nn2-c2ccccc2)c1 [CDPPB, reference compound] |  | activation of rat mGluR5 receptors without co-addition of glutamate (rat mGluR5): activating; activity in rat cortical astrocytes culture in the absence of added glutamate (mGluR5 [1]): inactive
2 | O=C(Nc1ccc(Cl)cc1CN1C(=O)c2ccccc2C1=O)c1ccccc1O [CPPHA, reference compound] |  | activation of rat mGluR5 receptors without co-addition of glutamate (rat mGluR5): activating; activity in rat cortical astrocytes culture in the absence of added glutamate (mGluR5 [1]): inactive
3 | Fc1cccc(/C=N/N=C/c2cccc(F)c2)c1 [DFB, reference compound] |  | activation of rat mGluR5 receptors without co-addition of glutamate (rat mGluR5): activating; activity in rat cortical astrocytes culture in the absence of added glutamate (mGluR5 [1]): inactive
4 | O=C(Nc1ccc(F)cc1)O[C@H]1CCCN(C(=O)c2ccc(F)cc2)C1 [Example 1, (4-Fluoro-phenyl)-carbamic acid (S)-1-(4-fluoro-benzoyl)-piperidin-3-yl ester] | 1000 to 10000 | IC50 (mGluR5 [2]): < 30000 nM
5 | O=C(Nc1ccc(Cl)cc1)O[C@H]1CCCN(C(=O)c2ccc(F)cc2)C1 [Example 2, (4-Chloro-phenyl)-carbamic acid (S)-1-(4-fluoro-benzoyl)-piperidin-3-yl ester] | 1000 to 10000 | 
6 | COc1ccc(NC(=O)O[C@H]2CCCN(C(=O)c3ccc(F)cc3)C2)cc1 [Example 3, (4-Methoxy-phenyl)-carbamic acid (S)-1-(4-fluoro-benzoyl)-piperidin-3-yl ester] | 1000 to 10000 | 
7 | O=C(NC1CCCC1)O[C@H]1CCCN(C(=O)c2ccc(F)cc2)C1 [Example 7, Cyclopentyl-carbamic acid (S)-1-(4-fluoro-benzoyl)-piperidin-3-yl ester] | > 10000 | 
8 | O=C(NC1CCCCC1)O[C@H]1CCCN(C(=O)c2ccc(F)cc2)C1 [Example 8, Cyclohexyl-carbamic acid (S)-1-(4-fluoro-benzoyl)-piperidin-3-yl ester] | 1000 to 10000 | 
9 | O=C(NCc1ccc(F)cc1)O[C@H]1CCCN(C(=O)c2ccc(F)cc2)C1 [Example 10, (4-Fluoro-benzyl)-carbamic acid (S)-1-(4-fluoro-benzoyl)-piperidin-3-yl ester] | 1000 to 10000 | 
10 | O=C(Nc1ccc(F)cc1)N[C@H]1CCCN(C(=O)c2ccc(F)cc2)C1 [Example 11, 1-[(S)-1-(4-Fluoro-benzoyl)-piperidin-3-yl]-3-(4-fluoro-phenyl)-urea] | 1000 to 10000 | melting point: 228 to 231 °C

Second part, led by results:

Row | EC50 (rat mGluR5) [nM] | SMILES | further results
11 | < 1000 | O=C(Nc1ccccc1)O[C@H]1CCCN(C(=O)c2ccc(F)cc2)C1 [Example 4, Phenyl-carbamic acid (S)-1-(4-fluoro-benzoyl)-piperidin-3-yl ester] | 
12 | < 1000 | O=C(Nc1cccc(F)c1)O[C@H]1CCCN(C(=O)c2ccc(F)cc2)C1 [Example 5, (3-Fluoro-phenyl)-carbamic acid (S)-1-(4-fluoro-benzoyl)-piperidin-3-yl ester] | 
13 | < 1000 | O=C(Nc1ccccc1F)O[C@H]1CCCN(C(=O)c2ccc(F)cc2)C1 [Example 6, (2-Fluoro-phenyl)-carbamic acid (S)-1-(4-fluoro-benzoyl)-piperidin-3-yl ester] | 
14 | 1000 to 10000 | O=C(Nc1ccncc1)O[C@H]1CCCN(C(=O)c2ccc(F)cc2)C1 [Example 9, Pyridin-4-yl-carbamic acid (S)-1-(4-fluoro-benzoyl)-piperidin-3-yl ester] | 
15 | 1000 to 10000 | O=C(Nc1ccccc1)OC1CCN(C(=O)c2ccc(F)cc2)C1 (stereo not drawn) [Example 12, (Phenyl)-carbamic acid-1-(4-fluoro-benzoyl)-pyrrolidin-3-yl ester] | melting point: 173 to 175 °C
